In patent US8097620B2, “Diazaquinolones that inhibit prolyl hydroxylase activity” (Amgen Inc., priority 2007, dated 2012):

Target: HIF PHD2 (Homo sapiens, UniProt Q9GZT9)
Assay: PHD2 inhibition assay (TR-FRET, VCB-Eu detection of hydroxylated P564-HIF1α peptide)
Assay type: biochemical
Settings: 2 nM PHD2, 100 nM P564-HIF1α peptide, 0.25 μM 2-oxoglutarate, 100 μM FeCl2, 2 mM ascorbic acid, pH 6
Description: Inhibition of HIF PHD2 activity was quantified utilizing the TR-FRET technology. HIF PHD2 catalyzes a hydroxyl modification on the proline residue of the P564-HIF1α peptide substrate (Biotin-[…] (SEQ ID NO: 7)) resulting in recognition and binding of the europylated Von Hippel-Lindau protein (pVHL), elongin B and elongin C heterotrimeric (VCB-Eu) complex.
The PHD2 inhibition assay was executed by addition of freshly dissolved FeCl2 to 178.57 μM (100 μM final concentration) in PHD2 Reaction Buffer containing 30 mM MES, pH 6, 10 mM NaCl, 0.25% Brij-35, 0.01% BSA, and 1% DMSO. 28 μL of the iron solution and 2 μL of inhibitor compounds serially diluted in 100% DMSO (5% DMSO final) were added to black polypropylene 96-well microtiter plates. To that, 10 μL of 10 nM PHD2 (2 nM final) was added to all wells of the plate except for the 8 wells of column 12 (LO control), and allowed to incubate at room temperature on the shaker for one hour. Column 6 was the HI control containing PHD2 enzyme and 5% DMSO vehicle, but no inhibitor compound. To initiate the PHD2 enzymatic reaction, 10 μL of a solution containing 500 nM P564-HIF1α peptide (100 nM final), 10 mM ascorbic acid (2 mM final), and 1.25 μM 2-oxoglutarate (α-ketoglutarate; 0.25 μM final) in PHD2 Reaction Buffer was added to all wells of the plate and allowed to incubate on the shaker at room temperature for one hour.
The reaction was terminated by addition of 25 μL TR-FRET Buffer (50 mM TRIS-HCl, pH 9, 100 mM NaCl, 0.05% BSA, and 0.5% Tween-20) containing 150 mM succinate (product inhibitor; 50 mM final), 75 nM streptavidin-APC (25 nM final), and 7.5 nM VCB-Eu (2.5 nM final). The TR-FRET detection reagents were placed on a shaker for 1 hour to reach binding equilibrium before reading on the Discovery platform (PerkinElmer). Europium is excited at 315 nm and phosphoresces at 615 nm with a large Stoke's shift. APC, in turn, emits at 655 nm upon excitation at 615 nm. The TR-FRET signal is measured as the ratio of the APC 655 nm signal divided by the internal europium reference 615 nm emission signal.
The POC (percentage of control) was determined by comparing the signal from hydroxylated peptide substrate in the enzyme reaction containing inhibitor compound with that from PHD2 enzyme with DMSO vehicle alone (HI control), and no enzyme (LO control). POC was calculated using the formula: % control (POC)=(cpd−average LO)/(average HI−average LO)*100. Data (consisting of POC and inhibitor concentration in μM) was fitted to a 4-parameter equation (y=A+((B−A)/(1+((x/C)^D))), where A is the minimum y (POC) value, B is the maximum y (POC), C is the x (cpd concentration) at the point of inflection and D is the slope factor) using a Levenburg-Marquardt non-linear regression algorithm.

Sequence of HIF PHD2 (Q9GZT9 whole entry): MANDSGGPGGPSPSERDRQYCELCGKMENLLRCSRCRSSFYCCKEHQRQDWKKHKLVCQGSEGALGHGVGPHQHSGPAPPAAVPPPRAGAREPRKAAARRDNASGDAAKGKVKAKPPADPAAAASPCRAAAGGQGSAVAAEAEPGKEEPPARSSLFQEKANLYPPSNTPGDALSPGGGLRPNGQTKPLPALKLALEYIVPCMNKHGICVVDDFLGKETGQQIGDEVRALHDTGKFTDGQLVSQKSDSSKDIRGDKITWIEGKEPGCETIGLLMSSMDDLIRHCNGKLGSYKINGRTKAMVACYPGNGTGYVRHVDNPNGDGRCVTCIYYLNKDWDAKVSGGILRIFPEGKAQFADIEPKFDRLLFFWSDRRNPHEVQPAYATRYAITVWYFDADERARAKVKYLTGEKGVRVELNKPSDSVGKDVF

Going from `Cn1c(=O)c(C(=O)NCC(=O)O)c(O)c2cnc(-c3ccoc3)nc21` [Example 30, 2-(2-(furan-3-yl)-5-hydroxy-8-methyl-7-oxo-7,8-dihydropyrido[2,3-d]pyrimidine-6-carboxamido)acetic acid] to `Cn1c(=O)c(C(=O)NCC(=O)O)c(O)c2cnc(-c3ccco3)nc21` [Example 38, 2-(2-(furan-2-yl)-5-hydroxy-8-methyl-7-oxo-7,8-dihydropyrido[2,3-d]pyrimidine-6-carboxamido)acetic acid], the IC50 falls from 5.3 nM to 2.5 nM (2.1-fold). The second is the more potent here.

Compared with `COc1ccccc1-c1ncc2c(O)c(C(=O)NCC(=O)O)c(=O)n(C)c2n1` [Example 31, 2-(5-hydroxy-2-(2-methoxyphenyl)-8-methyl-7-oxo-7,8-dihydropyrido[2,3-d]pyrimidine-6-carboxamido)acetic acid], `Cc1ccccc1-c1ncc2c(O)c(C(=O)NCC(=O)O)c(=O)n(C)c2n1` [Example 50, 2-(5-hydroxy-8-methyl-7-oxo-2-o-tolyl-7,8-dihydropyrido[2,3-d]pyrimidine-6-carboxamido)acetic acid] is 1.5-fold higher in IC50: 2.4 nM for the first, 3.6 nM for the second. The first is the more potent here.

`Cn1c(=O)c(C(=O)NCC(=O)O)c(O)c2cnc(-c3ccc(N4CCCCC4)cc3)nc21` [Example 32, 2-(5-hydroxy-8-methyl-7-oxo-2-(4-(piperidin-1-yl)phenyl)-7,8-dihydropyrido[2,3-d]pyrimidine-6-carboxamido)acetic acid] and `Cn1c(=O)c(C(=O)NCC(=O)O)c(O)c2cnc(-c3ccc(Cl)cc3)nc21` [Example 39, 2-(2-(4-chlorophenyl)-5-hydroxy-8-methyl-7-oxo-7,8-dihydropyrido[2,3-d]pyrimidine-6-carboxamido)acetic acid] are within 1.5-fold of each other in IC50: 5.3 nM for the first, 7.8 nM for the second.

`COc1ccc(-c2ncc3c(O)c(C(=O)NCC(=O)O)c(=O)n(C)c3n2)cc1` [Example 33, 2-(5-hydroxy-2-(4-methoxyphenyl)-8-methyl-7-oxo-7,8-dihydropyrido[2,3-d]pyrimidine-6-carboxamido)acetic acid] and `Cc1ccc(-c2ncc3c(O)c(C(=O)NCC(=O)O)c(=O)n(C)c3n2)cc1` [Example 47, 2-(5-hydroxy-8-methyl-7-oxo-2-p-tolyl-7,8-dihydropyrido[2,3-d]pyrimidine-6-carboxamido)acetic acid] are within 1.5-fold of each other in IC50: 6.4 nM for the first, 6.7 nM for the second.

`COc1cccc(-c2ncc3c(O)c(C(=O)NCC(=O)O)c(=O)n(C)c3n2)c1` [Example 34, 2-(5-hydroxy-2-(3-methoxyphenyl)-8-methyl-7-oxo-7,8-dihydropyrido[2,3-d]pyrimidine-6-carboxamido)acetic acid] and `Cc1cccc(-c2ncc3c(O)c(C(=O)NCC(=O)O)c(=O)n(C)c3n2)c1` [Example 37, 2-(5-hydroxy-8-methyl-7-oxo-2-m-tolyl-7,8-dihydropyrido[2,3-d]pyrimidine-6-carboxamido)acetic acid] are within 1.5-fold of each other in IC50: 10 nM for the first, 8.8 nM for the second.

`Cn1c(=O)c(C(=O)NCC(=O)O)c(O)c2cnc(-c3cccc4ncccc34)nc21` [Example 35, 2-(5-hydroxy-8-methyl-7-oxo-2-(quinolin-5-yl)-7,8-dihydropyrido[2,3-d]pyrimidine-6-carboxamido)acetic acid] and `Cn1c(=O)c(C(=O)NCC(=O)O)c(O)c2cnc(-c3ccnc4ccccc34)nc21` [Example 45, 2-(5-hydroxy-8-methyl-7-oxo-2-(quinolin-4-yl)-7,8-dihydropyrido[2,3-d]pyrimidine-6-carboxamido)acetic acid] are within 1.5-fold of each other in IC50: 2.4 nM for the first, 2 nM for the second.

First: Cn1c(=O)c(C(=O)NCC(=O)O)c(O)c2cnc(-c3cc4ccccc4s3)nc21 [Example 36, 2-(2-(benzo[b]thiophen-2-yl)-5-hydroxy-8-methyl-7-oxo-7,8-dihydropyrido[2,3-d]pyrimidine-6-carboxamido)acetic acid]
Second: Cn1c(=O)c(C(=O)NCC(=O)O)c(O)c2cnc(-c3cc4ccccc4[nH]3)nc21 [Example 42, 2-(5-hydroxy-2-(1H-indol-2-yl)-8-methyl-7-oxo-7,8-dihydropyrido[2,3-d]pyrimidine-6-carboxamido)acetic acid]
The IC50 of the first is 2.4-fold higher: 7.4 nM for the first, 3.1 nM for the second.

Going from `Cn1c(=O)c(C(=O)NCC(=O)O)c(O)c2cnc(-c3csc4ccccc34)nc21` [Example 40, 2-(2-(benzo[b]thiophen-3-yl)-5-hydroxy-8-methyl-7-oxo-7,8-dihydropyrido[2,3-d]pyrimidine-6-carboxamido)acetic acid] to `Cn1c(=O)c(C(=O)NCC(=O)O)c(O)c2cnc(-c3cccc4ccccc34)nc21` [Example 46, 2-(5-hydroxy-8-methyl-2-(naphthalen-1-yl)-7-oxo-7,8-dihydropyrido[2,3-d]pyrimidine-6-carboxamido)acetic acid], the IC50 falls from 13 nM to 2.3 nM (5.7-fold). The second is the more potent here.

Going from `Cn1c(=O)c(C(=O)NCC(=O)O)c(O)c2cnc(-c3ccc4ccccc4c3)nc21` [Example 41, 2-(5-hydroxy-8-methyl-2-(naphthalen-2-yl)-7-oxo-7,8-dihydropyrido[2,3-d]pyrimidine-6-carboxamido)acetic acid] to `Cn1c(=O)c(C(=O)NCC(=O)O)c(O)c2cnc(-c3cnc4ccccc4c3)nc21` [Example 49, 2-(5-hydroxy-8-methyl-7-oxo-2-(quinolin-3-yl)-7,8-dihydropyrido[2,3-d]pyrimidine-6-carboxamido)acetic acid], the IC50 falls from 9.4 nM to 3.2 nM (2.9-fold). The second is the more potent here.

Compared with `Cn1c(=O)c(C(=O)NCC(=O)O)c(O)c2cnc(-c3cccc(Cl)c3)nc21` [Example 43, 2-(2-(3-chlorophenyl)-5-hydroxy-8-methyl-7-oxo-7,8-dihydropyrido[2,3-d]pyrimidine-6-carboxamido)acetic acid], `Cn1c(=O)c(C(=O)NCC(=O)O)c(O)c2cnc(-c3cccnc3)nc21` [Example 55, 2-(5-hydroxy-8-methyl-7-oxo-2-(pyridin-3-yl)-7,8-dihydropyrido[2,3-d]pyrimidine-6-carboxamido)acetic acid] is 1.8-fold lower in IC50: 7.9 nM for the first, 4.45 nM for the second.

`Cn1ccc2cc(-c3ncc4c(O)c(C(=O)NCC(=O)O)c(=O)n(C)c4n3)ccc21` [Example 44, 2-(5-hydroxy-8-methyl-2-(1-methyl-1H-indol-5-yl)-7-oxo-7,8-dihydropyrido[2,3-d]pyrimidine-6-carboxamido)acetic acid] and `Cn1c(=O)c(C(=O)NCC(=O)O)c(O)c2cnc(-c3ccc4occc4c3)nc21` [Example 48, 2-(2-(benzofuran-5-yl)-5-hydroxy-8-methyl-7-oxo-7,8-dihydropyrido[2,3-d]pyrimidine-6-carboxamido)acetic acid] are within 1.5-fold of each other in IC50: 7.8 nM for the first, 7.1 nM for the second.

First: Cn1c(=O)c(C(=O)NCC(=O)O)c(O)c2cnc(-c3ccc4sccc4c3)nc21 [Example 51, 2-(2-(benzo[b]thiophen-5-yl)-5-hydroxy-8-methyl-7-oxo-7,8-dihydropyrido[2,3-d]pyrimidine-6-carboxamido)acetic acid]
Second: Cn1c(=O)c(C(=O)NCC(=O)O)c(O)c2cnc(-c3ccsc3)nc21 [Example 54, 2-(5-hydroxy-8-methyl-7-oxo-2-(thiophen-3-yl)-7,8-dihydropyrido[2,3-d]pyrimidine-6-carboxamido)acetic acid]
The IC50 of the first is 2.4-fold higher: 9.4 nM for the first, 4 nM for the second. The second is the more potent here.

`Cn1c(=O)c(C(=O)NCC(=O)O)c(O)c2cnc(-c3ccc(C#N)cc3)nc21` [Example 52, 2-(2-(4-cyanophenyl)-5-hydroxy-8-methyl-7-oxo-7,8-dihydropyrido[2,3-d]pyrimidine-6-carboxamido)acetic acid] and `Cn1c(=O)c(C(=O)NCC(=O)O)c(O)c2cnc(-c3cccc4[nH]ccc34)nc21` [Example 56, 2-(5-hydroxy-2-(1H-indol-4-yl)-8-methyl-7-oxo-7,8-dihydropyrido[2,3-d]pyrimidine-6-carboxamido)acetic acid] are within 1.5-fold of each other in IC50: 4.1 nM for the first, 5.3 nM for the second.

Compared with `Cn1c(=O)c(C(=O)NCC(=O)O)c(O)c2cnc(-c3cccc(N4CCOCC4)c3)nc21` [Example 53, 2-(5-hydroxy-8-methyl-2-(3-morpholinophenyl)-7-oxo-7,8-dihydropyrido[2,3-d]pyrimidine-6-carboxamido)acetic acid], `Cn1c(-c2ncc3c(O)c(C(=O)NCC(=O)O)c(=O)n(C)c3n2)cc2ccccc21` [Example 57, 2-(5-hydroxy-8-methyl-2-(1-methyl-1H-indol-2-yl)-7-oxo-7,8-dihydropyrido[2,3-d]pyrimidine-6-carboxamido)acetic acid] is 2.8-fold higher in IC50: 5 nM for the first, 14 nM for the second. The first is the more potent here.
